# Measured values taken from article PMC6336494 (Nature communications, 2015).
# Biological target: myeloperoxidase (MPO) (Homo sapiens, UniProt P05164)
# Assay: guaiacol/H2O2 peroxidase activity assay with purified human MPO
# Assay type: biochemical
# myeloperoxidase (MPO), sequence (P05164 165-273): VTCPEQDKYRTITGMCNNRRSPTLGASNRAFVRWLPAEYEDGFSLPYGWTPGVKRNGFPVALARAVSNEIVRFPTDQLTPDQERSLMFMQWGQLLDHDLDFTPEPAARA
# myeloperoxidase (MPO), sequence (P05164 279-745): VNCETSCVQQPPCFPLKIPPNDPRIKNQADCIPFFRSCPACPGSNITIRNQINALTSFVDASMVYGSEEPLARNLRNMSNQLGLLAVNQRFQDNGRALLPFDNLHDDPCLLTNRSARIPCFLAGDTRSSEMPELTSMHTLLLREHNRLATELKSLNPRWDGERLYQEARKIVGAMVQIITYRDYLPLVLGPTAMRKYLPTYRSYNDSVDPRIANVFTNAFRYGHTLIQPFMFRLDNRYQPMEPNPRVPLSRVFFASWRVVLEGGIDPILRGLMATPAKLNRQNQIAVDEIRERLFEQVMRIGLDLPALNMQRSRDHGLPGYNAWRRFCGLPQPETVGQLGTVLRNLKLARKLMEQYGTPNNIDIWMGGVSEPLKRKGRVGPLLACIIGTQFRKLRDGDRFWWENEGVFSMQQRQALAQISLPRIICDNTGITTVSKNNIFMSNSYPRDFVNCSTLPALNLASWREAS
smiles,measurement,value
O=C(N[C@H]1COC(=O)[C@@H](NC(=O)c2cccc(O)c2O)COC(=O)[C@@H](NC(=O)c2cccc(O)c2O)COC1=O)c1cccc(O)c1O [enterobactin],IC50,~1 µM
